In brackets after ≈: the same amount, converted by molar mass. Read-outs that look alike come from different tables or passages of the source.
What was measured:
[1] = system: Bacillus cereus ATCC 11778; test: MIC, CLSI broth microdilution; assay type: cell-based; settings: Mueller Hinton broth, 18 hours at 37° C., highest concentration 128 μg/ml
Description: (§1) The MICs of the purified compounds were done according to CLSI guidelines using Mueller Hinton broth (Hi media) against panel of six Gram positive bacteria S.aureus, S.epidermidis, B.cereus, B.subtilis, M.luteus and L.monocytogenes, two Gram negative bacteria E.coli and P.aeruginosa, and four MRSA (Methicillin resistant S.aureus) clinical strain. The stock solution of compounds were made at 10 mg/ml in DMSO. The test compounds (highest concentration 128 μg/ml) were serially diluted in 50 μl of Mueller Hinton broth and 50 μl of bacterial suspension were added to reach the final desired cell density of 5×10^5 CFU ml^−1 in each well of 96 well microtiter plate except the media control. The medium, untreated culture, DMSO, ampicillin and kanamycin were used as controls. […] The MICs were defined as the lowest concentration that inhibited visible growth of bacteria.

[2] = system: Bacillus subtilis ATCC 6633; test: MIC, CLSI broth microdilution; assay type: cell-based; settings: Mueller Hinton broth, 18 hours at 37° C., highest concentration 128 μg/ml
Description: as §1

[3] = system: Listeria monocytogenes ATCC 19111; test: MIC, CLSI broth microdilution; assay type: cell-based; settings: Mueller Hinton broth, 18 hours at 37° C., highest concentration 128 μg/ml
Description: as §1

[4] = system: Micrococcus luteus ATCC 9341; test: MIC, CLSI broth microdilution; assay type: cell-based; settings: Mueller Hinton broth, 18 hours at 37° C., highest concentration 128 μg/ml
Description: as §1

[5] = system: Pseudomonas aeruginosa ATCC 9027; test: MIC, CLSI broth microdilution; assay type: cell-based; settings: Mueller Hinton broth, 18 hours at 37° C., highest concentration 128 μg/ml
Description: as §1

[6] = system: Staphylococcus aureus ATCC 9144; test: MIC, CLSI broth microdilution; assay type: cell-based; settings: Mueller Hinton broth, 18 hours at 37° C., highest concentration 128 μg/ml
Description: as §1

[7] = system: Staphylococcus epidermidis ATCC; test: MIC, CLSI broth microdilution; assay type: cell-based; settings: Mueller Hinton broth, 18 hours at 37° C., highest concentration 128 μg/ml
Description: as §1

[8] = system: Mycobacterium smegmatis ATCC 607; test: MIC, Middlebrook 7H9 medium; assay type: cell-based; settings: for MIC: Middlebrook 7H9 medium, 48 hours at 37° C., highest concentration 128 μg/ml
[9] = system: MRSA_10B; test: MIC, CLSI broth microdilution, MRSA clinical strain; assay type: cell-based, Methicillin resistant S.aureus; settings: Mueller Hinton broth, 18 hours at 37° C., highest concentration 128 μg/ml
Description: as §1

[10] = system: MRSA_3B; test: as above; assay type: cell-based, Methicillin resistant S.aureus; settings: Mueller Hinton broth, 18 hours at 37° C., highest concentration 128 μg/ml
Description: as §1

[11] = system: MRSA_6B; test: as above; assay type: cell-based, Methicillin resistant S.aureus; settings: Mueller Hinton broth, 18 hours at 37° C., highest concentration 128 μg/ml
Description: as §1

[12] = system: MRSA_9B; test: as above; assay type: cell-based, Methicillin resistant S.aureus; settings: Mueller Hinton broth, 18 hours at 37° C., highest concentration 128 μg/ml
Description: as §1

[13] = system: Gram-positive bacteria; test: MIC, panel of Gram positive bacteria; assay type: cell-based
Description: as §1

[14] = system: resistant clinical bacterial strains; test: MIC, resistant clinical bacterial strains; assay type: cell-based, MRSA (Methicillin resistant S.aureus)
Description: as §1

[15] = system: blood-stage Plasmodium falciparum (3D7 strain); test: Antimalarial activity, SYBR green staining-based parasitemia determination; assay type: cell-based; settings: P. falciparum 3D7
Description: The antimalarial activity was carried out on blood-stage Plasmodium falciparum (3D7 strain) with various concentrations ranging from 10 μM to 0.01 μM by 5 SYBR green staining-based parasitemia determination. Parasite cultures were incubated with the test compounds for 60 h under optimal growth conditions, following which the cells were lysed with 0.01% Triton X and stained with SYBR Green I nucleic acid stain (Thermo Fisher Scientific) to estimate parasite growth and inhibition. Fluorescence readings were obtained with a GloMax plate reader (Promega) after 15 min incubation in the dark and raw fluorescence readings were processed. The % growth inhibition values were estimated from comparisons between test and control samples.

[16] = system: A549 (lung cancer); test: MTT cell viability assay; assay type: cell-based; settings: Homo sapiens, A549, 24 hours treatment
Description: (§2) MTT assay was used for the study of cell viability, which measured cellular metabolic activity based on the ability of nicotinamide adenine dinucleotide phosphate (NADPH) dependent oxidoreductase enzymes to reduce the yellow tetrazolium salt 3-[4,5-dimethylthiazole-2-yl]-2,5-diphenyltetrazolium bromide (MTT) to purple formazan crystals. The cell lines used for the study were A549 (lung cancer), HeLa (Cervical cancer) and MDA MB-231 (Breast cancer), which were seeded with a density of 10,000 cells/well into 96-well plates and incubated at 37° C. with 5% CO2 for 20 hours. The compounds with different concentrations were used to treat the cells for 24 hours. The medium was replaced with 100 μL of MTT solution (0.5 mg/mL in DMEM) and then incubated for 4 h at 37° C. in dark. Subsequently, MTT solution was removed and the formazan crystals were solubilized by addition of 100 μl DMSO. The optical density was measured at 570 nm by a Biotek synergy H1 microplate reader.

[17] = system: HeLa (Cervical cancer); test: MTT cell viability assay; assay type: cell-based; settings: Homo sapiens, 24 hours treatment
Description: as §2

[18] = system: MDA MB-231 (Breast cancer); test: MTT cell viability assay; assay type: cell-based; settings: Homo sapiens, MDA-MB-231, 24 hours treatment
Description: as §2

[19] = system: MDA-MB-231, A549 and HeLa; test: MTT cell viability assay, tested cancer cell lines; assay type: cell-based
Description: as §2

[20] = system: Escherichia coli ATCC 8739; test: MIC, CLSI broth microdilution; assay type: cell-based; settings: ATCC8739, Mueller Hinton broth, 18 hours at 37° C., highest concentration 128 μg/ml
Description: as §1

[21] = Bacillus cereus, ATCC11778, read-out: MIC
[22] = Bacillus subtilis, ATCC6633, read-out: MIC
[23] = Listeria monocytogenes, ATCC19111, read-out: MIC
[24] = Micrococcus luteus, ATCC9341, read-out: MIC
[25] = Staphylococcus aureus, ATCC9144, read-out: MIC
[26] = Staphylococcus epidermidis, read-out: MIC
[27] = Mycolicibacterium smegmatis, ATCC607, read-out: MIC
[28] = Staphylococcus aureus, read-out: MIC

| MIC [1, 21] [µg/mL] | MIC [2, 22] [µg/mL] | MIC [3, 23] [µg/mL] | MIC [4, 24] [µg/mL] | MIC [6, 25] [µg/mL] | MIC [7, 26] [µg/mL] | MIC [8, 27] [µg/mL] | MIC [9, 28] [µg/mL] | MIC [10, 28] [µg/mL] | MIC [11, 28] [µg/mL] | MIC [12, 28] [µg/mL] | IC50 [16] [µg/mL] | IC50 [17] [µg/mL] | IC50 [18] [µg/mL] | Structure (SMILES) | antibacterial activity against Gram-positive bacteria [13] | antimalarial activity [15] | anticancer activity [19] | also measured |
| --- | --- | --- | --- | --- | --- | --- | --- | --- | --- | --- | --- | --- | --- | --- | --- | --- | --- | --- |
| 8 (≈ 24.2 µM) | 4 (≈ 12.1 µM) | 2 (≈ 6.06 µM) | 8 (≈ 24.2 µM) | 2 (≈ 6.06 µM) | 2 (≈ 6.06 µM) | 64 (≈ 194 µM) | 4 (≈ 12.1 µM) | 4 (≈ 12.1 µM) | 4 (≈ 12.1 µM) | 4 (≈ 12.1 µM) | 2.14 | 3.53 | 1.79 | CC1OC2OC3C4=C(OC3(C)C12O)C(=O)c1c(O)cccc1C4=O (stereo not drawn) [Compound C-1] | good antibacterial activity | – | – | activity against Mycobacterium smegmatis [8]: weakly active; activity against the resistant clinical bacterial strains [14]: active; EC50 ([15]; Plasmodium falciparum, read-out: antimalarial activity (bound)): < 1 µM; IC50 ([19]; read-out: IC50 value range over the tested cancer cell lines): 1.79 to 8.82 µg/mL |
| 2 (≈ 4.13 µM) | 0.5 (≈ 1.03 µM) | 1 (≈ 2.06 µM) | 8 (≈ 16.5 µM) | 8 (≈ 16.5 µM) | 1 (≈ 2.06 µM) | 0.25 (≈ 0.516 µM) | – | – | – | 128 (≈ 264 µM) | – | – | – | NC[C@H]1O[C@H](O[C@H]2[C@H](O)[C@@H](O[C@H]3O[C@H](CO)[C@@H](O)[C@H](N)[C@H]3O)[C@H](N)C[C@@H]2N)[C@H](O)[C@@H](O)[C@@H]1O [Kanamycin, kanamycin, reference compound] | – | – | – | MIC [20]: 8 µg/mL (≈ 16.5 µM); MIC ([5]; Pseudomonas aeruginosa, ATCC9027, read-out: MIC): 8 µg/mL (≈ 16.5 µM) |

Second part, the compound before the results:

| Structure (SMILES) | MIC [1, 21] [µg/mL] | MIC [2, 22] [µg/mL] | MIC [3, 23] [µg/mL] | MIC [4, 24] [µg/mL] | MIC [6, 25] [µg/mL] | MIC [7, 26] [µg/mL] | MIC [8, 27] [µg/mL] | MIC [9, 28] [µg/mL] | MIC [10, 28] [µg/mL] | MIC [11, 28] [µg/mL] | MIC [12, 28] [µg/mL] | IC50 [16] [µg/mL] | IC50 [17] [µg/mL] | IC50 [18] [µg/mL] | antibacterial activity against Gram-positive bacteria [13] | antimalarial activity [15] | anticancer activity [19] | also measured |
| --- | --- | --- | --- | --- | --- | --- | --- | --- | --- | --- | --- | --- | --- | --- | --- | --- | --- | --- |
| CC1(C)S[C@@H]2[C@H](NC(=O)[C@H](N)c3ccccc3)C(=O)N2[C@H]1C(=O)O [Ampicilli, ampicillin, reference compound] | – | – | – | – | – | – | – | – | – | – | – | – | – | – | – | – | – | MIC [1]: 16 µg/mL (≈ 45.8 µM); MIC [2]: 0.03 µg/mL (≈ 0.0859 µM); MIC [3]: 0.03 µg/mL (≈ 0.0859 µM); MIC [4]: 0.03 µg/mL (≈ 0.0859 µM); MIC [5]: 2 µg/mL (≈ 5.72 µM); MIC [6]: 0.03 µg/mL (≈ 0.0859 µM); MIC [7]: 1 µg/mL (≈ 2.86 µM); MIC [8]: 64 µg/mL (≈ 183 µM); MIC [9]: 4 µg/mL (≈ 11.4 µM); MIC [10]: 8 µg/mL (≈ 22.9 µM); MIC [11]: 8 µg/mL (≈ 22.9 µM); MIC [12]: 16 µg/mL (≈ 45.8 µM) |
| CC1OC2OC3C(C)(OC4(O)C(=O)c5c(O)cccc5C(=O)C34O)C12O (stereo not drawn) [Compound C-2] | – | – | – | – | – | – | – | – | – | – | – | 44.9 | 36 | 19.1 | weakly active | moderately active | moderate activity | – |
| CC(C)Cc1nc(C(C)C(=O)O)c(C(C)C)n(O)c1=O (stereo not drawn) [Compound C-4] | 128 (≈ 453 µM) | 128 (≈ 453 µM) | 128 (≈ 453 µM) | 64 (≈ 227 µM) | 128 (≈ 453 µM) | 64 (≈ 227 µM) | – | 128 (≈ 453 µM) | 128 (≈ 453 µM) | 128 (≈ 453 µM) | 128 (≈ 453 µM) | 40.2 | 15.4 | 14.1 | weakly active | moderately active | moderate activity | – |

From patent publication US20250066380A1, “NOVEL FURANO-NAPHTHOQUINONE AND NOVEL PYRAZINONE COMPOUNDS FROM AMYCOLATOPSIS AND ACTIVITIES THEREOF” (COUNCIL OF SCIENTIFIC AND INDUSTRIAL RESEARCH (AN INDIAN …, priority 2022, published 2025)
